Experimental data taken from publication PMC7486443, “Generation of Phenothiazine with Potent Anti-TLK1 Activity for Prostate Cancer Therapy” (iScience, 2020).

Legend:
Test in all cases: biochemical
Set-up in all cases: DiscoverX KINOMEscan scanMAX competition binding panel, single concentration, percent of control; remaining binding: dose or concentration left out as unconfirmed
Details in all cases: KINOMEscan binding, percent of control; read-out: Table S4_SCANMAX REPORT - related to Fig. 1 / Percent Control
[1] = molecular target: CAMKK2 (Homo sapiens, UniProt Q96RR4)
[2] = molecular target: EPHA8 (Homo sapiens, UniProt P29322)
Chain of EPHA8 (P29322 whole entry): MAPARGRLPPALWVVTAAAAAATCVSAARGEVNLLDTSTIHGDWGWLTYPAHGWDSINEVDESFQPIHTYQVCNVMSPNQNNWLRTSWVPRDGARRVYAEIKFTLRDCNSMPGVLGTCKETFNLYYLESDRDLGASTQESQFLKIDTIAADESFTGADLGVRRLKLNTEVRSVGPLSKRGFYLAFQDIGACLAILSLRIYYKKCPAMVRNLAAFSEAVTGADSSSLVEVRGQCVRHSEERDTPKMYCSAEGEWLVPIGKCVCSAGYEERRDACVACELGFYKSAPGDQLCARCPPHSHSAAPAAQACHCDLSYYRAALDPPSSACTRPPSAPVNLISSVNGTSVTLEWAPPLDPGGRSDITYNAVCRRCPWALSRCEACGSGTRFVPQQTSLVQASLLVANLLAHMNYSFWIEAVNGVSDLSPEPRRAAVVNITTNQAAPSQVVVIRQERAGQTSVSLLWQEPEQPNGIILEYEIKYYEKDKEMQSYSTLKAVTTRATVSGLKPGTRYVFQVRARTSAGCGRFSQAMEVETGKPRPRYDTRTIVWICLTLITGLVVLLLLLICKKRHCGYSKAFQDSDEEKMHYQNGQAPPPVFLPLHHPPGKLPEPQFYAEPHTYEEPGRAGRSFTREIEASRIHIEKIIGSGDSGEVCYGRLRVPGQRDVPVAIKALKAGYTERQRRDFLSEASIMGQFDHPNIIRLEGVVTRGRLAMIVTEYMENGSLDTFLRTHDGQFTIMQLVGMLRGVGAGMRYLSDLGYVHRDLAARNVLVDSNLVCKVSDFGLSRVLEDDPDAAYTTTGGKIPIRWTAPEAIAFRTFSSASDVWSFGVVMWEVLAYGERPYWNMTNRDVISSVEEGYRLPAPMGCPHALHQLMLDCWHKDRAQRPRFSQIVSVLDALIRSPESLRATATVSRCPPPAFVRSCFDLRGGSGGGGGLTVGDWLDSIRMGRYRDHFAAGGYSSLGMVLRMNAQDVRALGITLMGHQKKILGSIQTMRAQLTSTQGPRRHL

[3] = molecular target: EPHB1 (Homo sapiens, UniProt P54762)
[4] = molecular target: FES (Homo sapiens, UniProt P07332)
[5] = molecular target: GRK4 (Homo sapiens, UniProt P32298)
[6] = molecular target: T1, JNK2 (Homo sapiens, UniProt P45984)
T1 construct: gene MAPK9
T1 sequence (P45984 whole entry): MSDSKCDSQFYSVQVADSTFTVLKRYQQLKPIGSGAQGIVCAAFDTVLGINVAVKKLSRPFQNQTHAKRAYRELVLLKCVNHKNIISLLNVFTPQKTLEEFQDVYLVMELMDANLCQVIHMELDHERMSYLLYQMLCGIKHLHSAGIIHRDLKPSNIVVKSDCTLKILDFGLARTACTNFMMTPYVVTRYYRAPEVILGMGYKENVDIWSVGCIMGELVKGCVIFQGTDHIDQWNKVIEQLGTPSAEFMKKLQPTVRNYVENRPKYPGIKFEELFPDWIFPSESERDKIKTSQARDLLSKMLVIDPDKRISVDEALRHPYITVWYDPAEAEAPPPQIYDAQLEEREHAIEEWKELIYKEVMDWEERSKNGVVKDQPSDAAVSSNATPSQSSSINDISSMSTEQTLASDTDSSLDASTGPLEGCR

[7] = molecular target: MAP3K3 (Homo sapiens, UniProt Q99759)
Chain of MAP3K3 (Q99759 whole entry): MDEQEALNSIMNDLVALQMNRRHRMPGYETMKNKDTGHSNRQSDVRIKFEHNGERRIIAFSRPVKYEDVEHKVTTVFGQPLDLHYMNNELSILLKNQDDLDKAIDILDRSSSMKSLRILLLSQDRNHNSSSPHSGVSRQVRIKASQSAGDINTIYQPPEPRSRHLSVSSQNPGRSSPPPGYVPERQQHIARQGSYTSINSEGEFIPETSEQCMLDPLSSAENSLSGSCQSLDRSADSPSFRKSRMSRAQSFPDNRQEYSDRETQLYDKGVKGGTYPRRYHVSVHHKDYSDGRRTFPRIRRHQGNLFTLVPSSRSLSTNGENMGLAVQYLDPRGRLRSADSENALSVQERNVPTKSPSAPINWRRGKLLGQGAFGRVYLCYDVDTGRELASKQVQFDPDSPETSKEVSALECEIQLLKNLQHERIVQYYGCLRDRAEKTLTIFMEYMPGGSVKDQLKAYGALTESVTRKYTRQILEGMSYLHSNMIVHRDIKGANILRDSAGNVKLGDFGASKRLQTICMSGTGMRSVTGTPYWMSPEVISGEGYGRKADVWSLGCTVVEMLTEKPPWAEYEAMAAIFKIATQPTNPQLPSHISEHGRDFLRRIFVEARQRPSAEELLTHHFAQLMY

[8] = molecular target: T2, MEK5 (Homo sapiens, UniProt Q13163)
T2 construct: gene MAP2K5

[9] = molecular target: T3, MLCK (Homo sapiens, UniProt Q32MK0)
T3 construct: gene MYLK3

[10] = molecular target: T4, MLK2 (Homo sapiens, UniProt Q02779)
T4 construct: gene MAP3K10

[11] = molecular target: NEK2 (Homo sapiens, UniProt P51955)
[12] = molecular target: NEK5 (Homo sapiens, UniProt Q6P3R8)
[13] = molecular target: T5, PFPK5(P.falciparum) (Plasmodium falciparum, UniProt P61075)
T5 construct: gene MAL13P1.279
T5 sequence (P61075 whole entry): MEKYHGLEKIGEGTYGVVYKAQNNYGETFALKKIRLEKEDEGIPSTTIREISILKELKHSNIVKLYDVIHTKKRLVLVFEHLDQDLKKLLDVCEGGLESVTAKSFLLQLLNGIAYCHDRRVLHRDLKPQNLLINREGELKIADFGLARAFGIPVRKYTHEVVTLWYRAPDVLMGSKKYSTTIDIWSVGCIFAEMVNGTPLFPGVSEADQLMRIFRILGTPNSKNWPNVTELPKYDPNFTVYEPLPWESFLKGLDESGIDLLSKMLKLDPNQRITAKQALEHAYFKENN

[14] = molecular target: PIK3CA(E545K) (Homo sapiens, UniProt P42336, E545K)
[15] = molecular target: PIM2 (Homo sapiens, UniProt Q9P1W9)
Chain of PIM2 (Q9P1W9 whole entry): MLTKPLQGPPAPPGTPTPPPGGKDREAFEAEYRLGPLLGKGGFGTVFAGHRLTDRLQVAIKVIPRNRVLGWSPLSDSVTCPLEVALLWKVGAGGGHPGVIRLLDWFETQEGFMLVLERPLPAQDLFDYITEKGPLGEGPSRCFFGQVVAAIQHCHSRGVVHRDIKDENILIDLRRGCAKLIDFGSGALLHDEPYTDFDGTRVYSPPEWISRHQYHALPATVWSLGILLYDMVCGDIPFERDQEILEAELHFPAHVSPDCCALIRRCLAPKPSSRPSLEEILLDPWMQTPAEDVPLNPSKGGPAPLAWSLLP

[16] = molecular target: PRKD3 (Homo sapiens, UniProt O94806)
Chain of PRKD3 (O94806 whole entry): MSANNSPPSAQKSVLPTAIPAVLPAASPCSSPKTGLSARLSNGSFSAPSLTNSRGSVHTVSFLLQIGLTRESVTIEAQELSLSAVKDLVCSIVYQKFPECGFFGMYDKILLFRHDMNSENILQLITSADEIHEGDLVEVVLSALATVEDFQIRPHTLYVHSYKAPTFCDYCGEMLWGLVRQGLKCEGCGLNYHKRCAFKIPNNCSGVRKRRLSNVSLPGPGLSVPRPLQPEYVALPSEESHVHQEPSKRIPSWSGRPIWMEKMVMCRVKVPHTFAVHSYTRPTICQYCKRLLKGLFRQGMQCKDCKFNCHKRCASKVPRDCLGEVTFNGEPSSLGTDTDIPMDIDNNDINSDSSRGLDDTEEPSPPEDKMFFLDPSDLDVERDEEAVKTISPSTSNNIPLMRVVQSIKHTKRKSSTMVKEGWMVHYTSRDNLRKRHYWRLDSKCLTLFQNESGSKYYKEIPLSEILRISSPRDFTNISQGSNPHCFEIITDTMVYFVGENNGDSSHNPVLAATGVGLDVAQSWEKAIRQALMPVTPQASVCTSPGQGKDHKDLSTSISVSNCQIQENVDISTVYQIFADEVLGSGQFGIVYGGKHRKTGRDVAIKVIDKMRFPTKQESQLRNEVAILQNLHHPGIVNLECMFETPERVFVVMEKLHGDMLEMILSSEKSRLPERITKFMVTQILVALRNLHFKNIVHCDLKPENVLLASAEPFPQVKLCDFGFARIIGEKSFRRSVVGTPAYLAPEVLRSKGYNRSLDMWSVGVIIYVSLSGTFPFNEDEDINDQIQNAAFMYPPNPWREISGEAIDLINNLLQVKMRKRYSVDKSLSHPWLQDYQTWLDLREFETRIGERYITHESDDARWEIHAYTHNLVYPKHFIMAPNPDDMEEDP

[17] = molecular target: ROCK2 (Homo sapiens, UniProt O75116)
Chain of ROCK2 (O75116 whole entry): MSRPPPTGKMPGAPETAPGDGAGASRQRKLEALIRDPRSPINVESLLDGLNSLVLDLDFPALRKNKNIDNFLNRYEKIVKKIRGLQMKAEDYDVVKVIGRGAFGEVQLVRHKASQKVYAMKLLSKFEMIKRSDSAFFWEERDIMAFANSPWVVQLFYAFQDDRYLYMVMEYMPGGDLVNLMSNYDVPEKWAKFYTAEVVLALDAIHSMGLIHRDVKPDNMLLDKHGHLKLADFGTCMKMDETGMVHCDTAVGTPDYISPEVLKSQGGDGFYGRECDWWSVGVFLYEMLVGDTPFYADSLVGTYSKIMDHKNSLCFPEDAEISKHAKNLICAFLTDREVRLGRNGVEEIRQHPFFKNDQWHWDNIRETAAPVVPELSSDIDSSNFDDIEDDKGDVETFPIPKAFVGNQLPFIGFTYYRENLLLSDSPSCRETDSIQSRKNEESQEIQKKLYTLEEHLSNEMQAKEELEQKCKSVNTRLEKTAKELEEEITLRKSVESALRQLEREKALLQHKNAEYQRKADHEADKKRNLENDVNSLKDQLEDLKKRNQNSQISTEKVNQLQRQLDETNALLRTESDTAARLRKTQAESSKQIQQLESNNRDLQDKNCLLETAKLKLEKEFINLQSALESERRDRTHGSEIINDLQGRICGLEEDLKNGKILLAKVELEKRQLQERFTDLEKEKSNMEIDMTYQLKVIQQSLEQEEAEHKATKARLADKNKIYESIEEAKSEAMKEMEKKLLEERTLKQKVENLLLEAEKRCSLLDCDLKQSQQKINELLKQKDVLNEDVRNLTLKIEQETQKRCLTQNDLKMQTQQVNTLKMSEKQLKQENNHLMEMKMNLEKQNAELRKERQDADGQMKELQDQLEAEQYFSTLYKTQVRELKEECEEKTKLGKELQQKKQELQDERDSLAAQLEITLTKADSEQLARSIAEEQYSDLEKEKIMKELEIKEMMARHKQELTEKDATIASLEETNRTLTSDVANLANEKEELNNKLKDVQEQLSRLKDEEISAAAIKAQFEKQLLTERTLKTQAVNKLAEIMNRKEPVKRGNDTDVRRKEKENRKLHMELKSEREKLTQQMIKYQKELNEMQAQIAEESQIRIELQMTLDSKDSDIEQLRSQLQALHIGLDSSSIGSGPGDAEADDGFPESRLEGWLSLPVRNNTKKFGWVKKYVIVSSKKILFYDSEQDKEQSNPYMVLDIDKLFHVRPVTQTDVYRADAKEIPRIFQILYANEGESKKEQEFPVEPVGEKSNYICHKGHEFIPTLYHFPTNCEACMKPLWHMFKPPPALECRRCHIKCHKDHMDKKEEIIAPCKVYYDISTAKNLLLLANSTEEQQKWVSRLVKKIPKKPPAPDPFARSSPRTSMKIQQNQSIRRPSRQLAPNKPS

[18] = molecular target: T6, SgK110 (Homo sapiens, UniProt P0C264)
T6 construct: gene SBK3

[19] = molecular target: TSSK1B (Homo sapiens, UniProt Q9BXA7)

c1ccc2c(c1)Sc1ccccc1N2CCN1CCOCC1 [J54]
remaining binding [1]: 100% | remaining binding [2]: 100% | remaining binding [3]: 100% | remaining binding [4]: 100% | remaining binding [5]: 54% | remaining binding [6]: 84% | remaining binding [7]: 100% | remaining binding [8]: 95% | remaining binding [9]: 79% | remaining binding [10]: 97% | remaining binding [11]: 100% | remaining binding [12]: 70% | remaining binding [13]: 98% | remaining binding [14]: 100% | remaining binding [15]: 42% | remaining binding [16]: 100% | remaining binding [17]: 98% | remaining binding [18]: 100% | remaining binding [19]: 59%
